Data set [1] deals with wild buckwheat (Polygonum convolvulus). Kind of data set: Postemergence herbicidal activity. The class given is in vivo. Particulars: Fallopia convolvulus, post-emergence, 336 h, Table 1, visual, after 2 weeks, read-out: Post-emergent % Control POLCO; for pest or weed control at 125 ppm: rate 125 ppm; for pest or weed control at 250 ppm: rate 250 ppm. In outline: (§1)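 Greenhouse plants at first or second true leaf stage sprayed to coverage with compound in acetone/water/isopropanol/DMSO/crop oil/surfactant mixture; 1 ppm ≈ 1 g/Ha. Plants sub-irrigated afterward. Injury scored visually after 2 weeks versus untreated plants, 0 (none) to 100% (complete kill).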

For data set [2], the system named is cocklebur (Xanthium strumarium). Briefly: Postemergence herbicidal activity. The settings on record: for pest or weed control at 125 ppm / pest or weed control at 250 ppm: Xanthium strumarium, post-emergence, 336 h, Table 1, visual, after 2 weeks, read-out: Post-emergent % Control XANST; for Post-emergent Evaluation - % control XANST: Table 4. The class given is in vivo. In outline: as §1

Data set [3] deals with chickweed (Stellaria media). Kind of data set: Postemergence herbicidal activity. The settings on record: Stellaria media, post-emergence, 336 h, Table 1, visual, after 2 weeks, read-out: Post-emergent % Control STEME; for pest or weed control at 125 ppm: rate 125 ppm; for pest or weed control at 250 ppm: rate 250 ppm. The class given is in vivo. In outline:
as §1

For data set [4], the system named is velvetleaf (Abutilon theophrasti). Briefly: Preemergence herbicidal activity. The class given is in vivo. The settings on record: Abutilon theophrasti, 504 h, Table 6 (headed Post-emergent; text: preemergence), after 3 weeks, read-out: % Control ABUTH; for pest or weed control at 560 ppm: rate 560 ppm. Summed up:
(§2)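 Test compounds, dissolved in acetone/DMSO and diluted with 0.1 percent Tween 155 in water, are applied evenly to the surface of seeded soil (loam/sand, pH about 8.1) before emergence. Plants grow in the greenhouse for 3 weeks before visual rating against untreated controls on a 0-100 percent scale.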

Data set [5] relates to pigweed (Amaranthus retroflexus). Kind of data set: Preemergence herbicidal activity. The class given is in vivo. Particulars: Amaranthus retroflexus, 504 h, Table 6 (headed Post-emergent; text: preemergence), after 3 weeks, read-out: % Control AMARE; for pest or weed control at 560 ppm: rate 560 ppm. Summed up:
as §2

Data set [6] has as its system morningglory (Ipomoea hederacea). Kind of data set: Preemergence herbicidal activity. It counts as in vivo. The settings on record: Ipomoea, 504 h, Table 6 (headed Post-emergent; text: preemergence), after 3 weeks, read-out: % Control IPOHE; for pest or weed control at 560 ppm: rate 560 ppm. Summed up:
as §2

In data set [7] the test system is broadleaf dock (Rumex obtusifolia). Briefly: Range & Pasture Crop Testing (postemergence track sprayer). The class given is in vivo. Particulars: Table 9; rate 70 g/Ha; 3 weeks after treatment. The method, then: (§3) Rates are calculated based upon 5 doses being applied. The high rate (X), followed by serial dilutions of 1/2×, 1/4×, 1/8× and 1/16×. Compound requirements are based upon the 187 L/ha carrier volume, specifications of the delivery system (Mandel track sprayer) and generating 24 mL of technical spray material to allow for the dilutions and overage in the sprayer. [formula]
(§4) All technical materials were formulated in 97:3 (acetone:DMSO) with 0.25% X-77. The total volume of solvent is maintained at less than 7%. An overhead Mandel track sprayer calibrated to deliver 187 L/ha was used for all treatment applications (postemergence). Picloram was included as a comparison treatment.
(§5) Solutions were applied with a mechanized track-sprayer at the following settings:
(§6) Spray height: 17 inches above top of plants
(§7) This provides an application volume of 187 L/ha.
(§8) Percent weed control (burn down) was evaluated 3 weeks after treatment. Visual control on a 0-100 linear scale was used, with 0 representing no control and 100 representing total control. Burn down ratings were taken for annual and perennial weed species.

Data set [8] deals with crested wheatgrass (Agropyron cristatum) (grass crop). The description is as above. The class given is in vivo. The settings on record: Table 9, rate 70 g/Ha, 3 weeks after treatment. The method, then: as §3, §4, §5, §6, §7, §8
Data set [9] deals with common ragweed (Ambrosia artemisiifolia). Described as above. It counts as in vivo. Particulars: Table 9; rate 70 g/Ha; 3 week evaluation. The method, then: as §3, §4, §5, §6, §7, §8
Data set [10] concerns field bindweed (Convolvulus arvensis). The data set is described as above. The class given is in vivo. Particulars: Table 10; clover pasture; postemergence. The method, then:
(§9) By applying the well-accepted probit analysis as described by J. Berkson in Journal of the […], 48, 565 (1953) and by D. Finney in “Probit Analysis” Cambridge University Press (1952), the above data can be used to calculate GR50 and GR80 values, which are defined as growth reduction factors that correspond to the effective dose of herbicide required to kill or control 50 percent or 80 percent, respectively, of a target plant.
as §3, §4, §5, §6, §7, §8

The subject of data set [11] is White Clover (Trifolium repens). Described as above. It counts as in vivo. The settings on record: Table 10. The method, then: as §9, §3, §4, §5, §6, §7, §8
Data set [12] concerns Canada thistle (Cirsium arvense). Described as above. The class given is in vivo. The method, then:
as §9, §3, §4, §5, §6, §7, §8

The test system of another data set is corn (Zea mays). Briefly: Postemergence herbicidal activity, selectivity to corn. Particulars: Table 4, crop (corn). It counts as in vivo. The method, then: (§10) Seeds of the desired test plant species were planted in Grace-Sierra MetroMix® 306 planting mixture, which typically has a pH of 6.0 to 6.8 and an organic matter content of about 30 percent, in plastic pots with a surface area of 64 square centimeters. When required to ensure good germination and healthy plants, a fungicide treatment and/or other chemical or physical treatment was applied. The plants were grown for 7-21 days in a greenhouse with an approximate 15 hr photoperiod which was maintained at about 23-29° C. during the day and 22-28° C. during the night. Nutrients and water were added on a regular basis and supplemental lighting was provided with overhead metal halide 1000-Watt lamps as necessary. The plants were employed for testing when they reached the first or second true leaf stage.
(§11) A weighed amount, determined by the highest rate to be tested, of each test compound was placed in a 20 mL glass vial and was dissolved in 4 mL of a 97:3 v/v (volume/volume) mixture of acetone and dimethyl sulfoxide (DMSO) to obtain concentrated stock solutions. […] The concentrated stock solutions obtained were diluted with an aqueous mixture containing acetone, water, isopropyl alcohol, DMSO, Atplus 411F crop oil concentrate, and Triton X-155 surfactant in a 48.5:39:10:1.5:1.0:0.02 v/v ratio to obtain spray solutions of known concentration. The solutions containing the highest concentration to be tested were prepared by diluting 2 mL aliquots of the stock solution with 13 mL of the mixture and lower concentrations were prepared by serial dilution of the stock solution. […]
(§12) The treated plants and control plants were placed in a greenhouse as described above and watered by sub-irrigation to prevent wash-off of the test compounds. After 2 weeks the condition of the test plants as compared with that of the untreated plants was determined visually and scored on a scale of 0 to 100 percent where 0 corresponds to no injury and 100 corresponds to complete kill.

Data set [13] relates to velvetleaf (Abutillon theophrasti). Kind of data set: Postemergence herbicidal activity. It counts as in vivo. Particulars: Table 4. Summed up: as §1
In data set [14] the test system is pigweed (Amaranthus retroflexus). Kind of data set: Postemergence herbicidal activity. Particulars: Table 4. The class given is in vivo. Summed up:
as §1

For data set [15], the system named is yellow nutsedge (Cyperus esculentus). Kind of data set: Postemergence herbicidal activity. The settings on record: Table 3; weeds in rice; rate 250 ppm. The class given is in vivo. Summed up: as §1
Data set [16] deals with barnyardgrass (Echinochloa crus-galli). Kind of data set: Postemergence herbicidal activity. The class given is in vivo. The settings on record: Table 3; weeds in rice; rate 250 ppm. In outline:
as §1

For a further data set, the system named is rice (Oryza sativa). Kind of data set: Postemergence herbicidal activity, selectivity to rice. The class given is in vivo. The settings on record: Table 3; crop (rice); rate 250 ppm. The method, then:
as §10, §11, §12

The structures appear in SMILES notation.

Regarding `CC(C)OC(=O)c1nc(Cl)cc(N)c1Cl` [Compound 6, i-propyl 4-amino-3,6-dichloropyridine-2-carboxylate], the melting point (as a rule, the temperature of the solid-liquid transition) is 114 to 115 °C. Besides, the pest or weed control at 125 ppm in data set [1] worked out at 100%. The pest or weed control at 125 ppm in data set [2] (rate 125 ppm) was found to be 100%. The pest or weed control at 125 ppm in data set [3] amounted to 100%. The pest or weed control at 280 ppm in data set [4] (rate 280 ppm) turned out to be 100%. For the same molecule, the pest or weed control at 280 ppm in [5] (rate 280 ppm) is 100%. The pest or weed control at 280 ppm in data set [6] (rate 280 ppm) amounted to 100%. The “Post-emergent Evaluation - % control RUMOB” value in data set [7] turned out to be 100%. Moreover, the “Post-emergent Evaluation - % control AGRCR” value in [8] came out at 30%. Moreover, the “Post-emergent Evaluation - % control AMBEL” value in [9] is 93%. Besides, the “GR80 CONAR” value in data set [10] turned out to be 98.8 g/ha. For the same molecule, the “GR20 TRFRE” value in [11] came to 98.8 g/ha. Also, the “Post-emergent Evaluation - % control CIRAR” value in [12] (Table 9, rate 70 g/Ha, 3 weeks after treatment) worked out at 95%. In data set [12] (Table 10, clover pasture, postemergence), the “GR80 CIRAR” value is under 17.5 g/ha.

Consider `Nc1c(Cl)c(C(=O)O)nc(Cl)c1Br` [Compound 20, 4-Amino-3,6-dichloro-5-bromopyridine-2-carboxylic acid], for which the melting point lay within 201 to 202 °C. Besides, the “Post-emergent Evaluation - % control ZEAMX” value with corn (Zea mays) (rate 250 ppm) was determined as 10%. Further, the pest or weed control at 250 ppm in [1] is 50%. In addition, in [2] (rate 250 ppm), the “Post-emergent Evaluation - % control XANST” value is 85% and the pest or weed control at 250 ppm amounted to 85%. In addition, the “Post-emergent Evaluation - % control ABUTH” value in [13] (rate 250 ppm) was found to be 70%. For the same molecule, the pest or weed control at 250 ppm in data set [3] came out at 90%. In data set [14] (rate 250 ppm), the “Post-emergent Evaluation - % control AMARE” value came out at 90%. Moreover, the pest or weed control at 560 ppm in data set [4] worked out at 100%. For the same molecule, the pest or weed control at 560 ppm in data set [5] came to 100%. In addition, the pest or weed control at 560 ppm in data set [6] stood at 100%.

For the molecule `CCNc1cc(Cl)nc(C(=O)O)c1Cl` [Compound 27, 4-N-ethylamino-3,6-dichloropyridine-2-carboxylic acid], the melting point was in the range of 136 to 137 °C. Moreover, the “post emergent evaluation - % control CYPES” value in data set [15] was determined as 50%. In [1], the pest or weed control at 125 ppm stood at 90%. The pest or weed control at 125 ppm in data set [2] (rate 125 ppm) was found to be 85%. Also, the “post emergent evaluation - % control ECHCG” value in data set [16] stood at 70%. Further, in data set [3], the pest or weed control at 125 ppm stood at 100%. Besides, in [4], the pest or weed control at 560 ppm was 100%. For the same molecule, the pest or weed control at 560 ppm in data set [5] is 100%. Moreover, in [6], the pest or weed control at 560 ppm came out at 100%. The “post emergent evaluation - % control ORYZA” value in the data set with rice (Oryza sativa) amounted to 40%.

`CN(C)c1cc(Cl)nc(C(=O)O)c1Cl` [Compound 33, 4-N,N-dimethylamino-3,6-dichloropyridine-2-carboxylic acid] showed a melting point of 110 °C. The “Post-emergent Evaluation - % control ZEAMX” value with corn (Zea mays) (rate 125 ppm) stood at 20%. Also, the pest or weed control at 250 ppm in data set [1] amounted to 100%. Further, in data set [2] (rate 125 ppm), the “Post-emergent Evaluation - % control XANST” value is 100%. Moreover, the pest or weed control at 250 ppm in data set [2] (rate 250 ppm) was determined as 100%. The “Post-emergent Evaluation - % control ABUTH” value in data set [13] (rate 125 ppm) is given as 80%. In data set [3], the pest or weed control at 250 ppm is 100%. In data set [14] (rate 125 ppm), the “Post-emergent Evaluation - % control AMARE” value is 50%. For the same molecule, the pest or weed control at 560 ppm in [4] was determined as 98%. In addition, the pest or weed control at 560 ppm in data set [5] is 100%. Moreover, in [6], the pest or weed control at 560 ppm turned out to be 100%.

Regarding `Nc1c(F)c(C(=O)O)nc(Cl)c1Cl` [Compound 43, 4-Amino-5,6-dichloro-3-fluoropyridine-2-carboxylic acid], the melting point is 208 °C (dec.). Also, the “Post-emergent Evaluation - % control ZEAMX” value with corn (Zea mays) (rate 250 ppm) worked out at 0%. Moreover, the pest or weed control at 125 ppm in data set [1] stood at 60%. Besides, the “Post-emergent Evaluation - % control XANST” value in data set [2] (rate 250 ppm) came out at 85%. Besides, the pest or weed control at 125 ppm in data set [2] (rate 125 ppm) worked out at 90%. Besides, the “Post-emergent Evaluation - % control ABUTH” value in [13] (rate 250 ppm) was 70%. In addition, the pest or weed control at 125 ppm in data set [3] was determined as 85%. For the same molecule, in data set [14] (rate 250 ppm), the “Post-emergent Evaluation - % control AMARE” value is reported as 90%. Also, the pest or weed control at 140 ppm in data set [4] (rate 140 ppm) came out at 80%. The pest or weed control at 140 ppm in data set [5] (rate 140 ppm) came to 30%. The pest or weed control at 140 ppm in data set [6] (rate 140 ppm) is 70%.

Source of the values: US20010047099A1, “4-aminopicolinates and their use as herbicides” (priority 2000, published 2001).
